Results published in patent US20250146022A1, “STABILISING THE HUMAN SPINDLE BY KIFC1/HSET” (MAX-PLANCK-GESELLSCHAFT ZUR FOERDERUNG DER WISSENSCHAFTEN …, priority 2021, published 2025).

Test system: KIFC1/HSET-depleted aMTOC-free mouse oocytes
Assay: Rescue of spindle polarity in KIFC1/HSET-depleted aMTOC-free mouse oocytes (human oocyte mimics)
Assay type: cell-based
From the text: This domain, together with the conserved, microtubule-binding motor domain, allows KIFC1/HSET to organize microtubules via crosslinking and/or sliding (86). To investigate the requirement of different domains in KIFC1/HSET, the inventors expressed a series of truncation mutants in aMTOC-free mouse oocytes (FIG. 7K). […] To examine whether the motor activity is dispensable for the function of KIFC1/HSET in aMTOC-free mouse oocytes, the inventors depleted endogenous KIFC1/HSET by follicle RNAi and restored expression with wild-type HSET or with HSET(N593K), which crosslinks microtubules but cannot slide (87). […] Together, the inventors infer that the appropriate level of KIFC1/HSET's crosslinking and sliding activities are required for proper bipolar spindle assembly in the absence of aMTOCs.
Mouse follicles were microinjected with 3.5 pl of siRNAs at a needle concentration of 2 μM as previously described (11). For rescue experiments, in vitro grown oocytes were microinjected with 3.5 pl of mRNAs. mClover3-HSET mRNA was microinjected at a needle concentration of 275 ng/μl, mClover3-HSET(N593K) mRNA at 275 ng/μl, mClover3-NUMA(S1955D) mRNA at 400 ng/μl, mClover3-NUMA(S1955A) mRNA at 400 ng/μl, mClover3-NUMA(SpM-4A) mRNA at 400 ng/μl, mClover3-NUMA(ΔMTBD1) mRNA at 400 ng/μl and mClover3-NUMA(ΔMTBD2) mRNA at 400 ng/μl. Oocytes were allowed to express the mRNAs for 3-4 h before release.
To obtain mouse MI spindles, oocytes were incubated at 37° C. for around 7 h after released into dbcAMP-free medium. To obtain porcine and bovine MI spindles, oocytes were incubated at 39° C./5% CO2 for around 11 and 12 h, respectively, after released into RO-3306-free medium. To obtain human MI spindles, oocytes were incubated at 37° C. for around 14 and 15 h after NEBD. None of the oocytes used for immunofluorescence analyses was subjected to live imaging before fixation.
Time-lapse movies of live mouse, bovine and porcine oocytes, and fixed human and mouse spindles were analyzed in 3D using Imaris (Bitplane). To determine the stages of meiosis and to score for spindle instability, the timing of meiotic progression was quantified relative to the timing of NEBD. NEBD was defined as the time point when the sharp boundary between the nucleus and cytoplasm disappeared in the differential interference contrast image (for mouse oocytes) or when the nucleus started collapsing in the H2B channel (for bovine and porcine oocytes). Spindle poles were defined as regions of MAP4 or MAP4-MTBD or α-tubulin intensity that prominently protruded from the main microtubule mass. In FIG. 1D, oocytes with bipolar spindle, in which ends of all microtubules converged at the poles, were scored as having focused poles. […] For mouse oocytes, unfocused poles were further classified into mildly unfocused poles (with partially separated microtubule ends) and severely unfocused poles (with fully separated microtubule ends). In FIG. 4D, bovine and porcine oocytes, in which the spindle maintained a barrel-shaped bipolar morphology and a detectable spindle axis, were scored as having stable spindle poles. Oocytes, in which the spindle lost their initial bipolarity and underwent dynamic remodeling of the pole(s) were scored as having unstable spindle poles. […] Oocytes, in which the spindle had more than two poles, were scored as having multipolar spindle. In FIG. 1H, mouse oocytes, in which the spindle had two well-defined poles, were scored as having bipolar spindle. Mouse oocytes, in which the spindle had two poorly defined poles, were scored as having apolar/round spindle. Mouse oocytes, in which the spindle had more than two poles, were scored as having multipolar spindle. […] Mouse oocytes, in which the spindle lost its barrel shape but contains several weakly associated microtubule bundles, were scored as having disorganized spindle.

KIFC1/HSET: Recombinant mClover3-tagged human kinesin-14 KIFC1/HSET protein (SEQ ID NO: 1), expressed in 293 cells, microinjected into human oocytes and zygotes
fold higher probability of having a bipolar spindle vs mimics without introduced KIFC1/HSET (FIG. 3H (left bar)): 3.2 fold | difference in percentage of bipolar spindles (from around 30% to 96%): 66% | bipolar spindles (re-introduction of KIFC1/HSET (rescue experiment) in human oocyte mimics, without around 30%, FIG. 3H): around 96%
